Source: US20240207379A1, “STRATEGIES TO PREVENT AND/OR TREAT IMMUNE RESPONSES TO SOLUBLE ALLOFACTORS” (IMCYSE SA, priority 2008, published 2024)

What was measured:
[1] = system: CFSE-labelled CD4(F8-) effector CD4+ T cells; assay: Apoptosis of factor VIII-specific effector CD4+ T cells by cytolytic CD4+ T cells elicited with modified factor VIII epitope (Annexin V / 7-AAD); assay type: cell-based, factor VIII KO mice; conditions: APC (spleen B cells) loaded with 5 μg/ml huFVIII and 1 µM peptide, 72 h at 37° C., baseline mortality subtracted
From the text: FIG. 2. Apoptosis of allofactor-specific effector T-cells by cytolytic CD4+ T-cells induced by a T-cell epitope derived from said allofactor and modified by attaching a thioreductase motif. The allofactor used was factor VIII. See Example 5 for more details.
Polyclonal effector CD4+ T cells were obtained from the spleen of factor VIII KO mice immunised with 2 IU of recombinant human FVIII (CD4(F8-)) and purified using anti-CD4 magnetic beads. The cells were then labelled with CFSE.
Induction of apoptosis as measured by of CFSE-labelled cells was then measured by Annexin V and 7-AAD staining after incubating such cells with APC (spleen B cells) loaded with 5 μg/ml huFVIII and 1 µM of peptide of SEQ ID NO:5 (CGHCGGFTNMFATWSPSK, corresponding to the 2196-2207 amino acid sequence of the C2 domain of human factor VIII, modified by addition of a thioreductase motif (underlined) separated by 2 glycines from the Factor VIII T-cell epitope). Apoptosis was measured after 72 h culture at 37° C. When CFSE-labelled CD4(F8-) cells were co-cultured with CD4+ T cells obtained from mice immunised with a synthetic peptide of SEQ ID NO:5 (cytolytic CD4+ T cells), significant apoptosis was induced. […] When CFSE-labelled CD4(F8−) cells were co-cultured in the presence of a double number of unlabeled CD4(F8−) cells, no apoptosis was induced (“CD4(F8−)” caption in FIG. 2). […]

murine splenic B cells = assay: Induction into apoptosis of splenic B cells of naïve mice by CD4+ T cells expanded with peptide (annexin V / 7-AAD Facs); assay type: cell-based, C57BI/6 mice
Experimental: FIG. 1. The bars in this Figure illustrate the viability of murine splenic B cells incubated under different conditions and evaluated by Facs analysis of annexin V binding and 7-AAD (two markers of apoptosis). • B (wt-pep): murine splenic B cells incubated with natural (wild-type) T-cell epitope derived from human anti-fVIII antibody; • B (cc-pep): murine splenic B cells incubated with T-cell epitope derived from human anti-fVIII antibody, wherein said T-cell epitope is modified by attaching the amino acids CHGC (SEQ ID NO: 20) to the N-terminus of the epitope; • B (cc-pep)+ T (cc-pep): murine splenic B cells incubated with modified anti-fVIII antibody T-cell epitope and with T cells expanded with modified T-cell epitope (modification as in “B (cc-pep)”); • B (wt-pep)+ T (cc-pep): murine splenic B cells incubated with wild-type anti-fVIII antibody T-cell epitope and T cells expanded with the corresponding modified T-cell epitope.
It was determined whether naïve B cells presenting a class II restricted T cell epitope derived from a BCR idiotype could be deleted by recognition and activation of T cells elicited to a specific anti-factor VIII antibody carrying the same idiotype. […]

CGHCGGFTNMFATWSPSK (modified human factor VIII T-cell epitope; MISC_FEATURE - thioreductase motif; MISC_FEATURE - Gly-Gly-linker) [SEQ ID NO:5]
apoptosis of CFSE-labelled CD4(F8-) cells co-cultured with cytolytic CD4+ T cells from mice immunised with the peptide ([1]; CD4(F8+) pool1): 6.6% | apoptosis of CFSE-labelled CD4(F8-) cells co-cultured with cytolytic CD4+ T cells from mice immunised with the peptide ([1]; CD4(F8+)pool2): 8.4%

CHGCYCAVPDPDA (modified T-cell epitope of CDR3 of anti-factor VIII antibody BO2C11; MISC_FEATURE - thioreductase motif) [SEQ ID NO:2]
induction into apoptosis of B cells by T cells expanded with the peptide (murine splenic B cells; B cells loaded with either peptide of SEQ ID NO:1 or SEQ ID NO:2, FIG. 1): induced into apoptosis

YCAVPDDPDA (T-cell epitope of CDR3 of anti-factor VIII antibody BO2C11) [SEQ ID NO:1, reference compound]
influence on the survival of control B cells of T cells expanded with the peptide (murine splenic B cells; incubation period of 18 h, data not shown): no or only little influence
